Experimental data: patent publication US20010056101A1 (priority 1998, published 2001)
Like-named read-outs stand apart in the source and are kept apart here. Blank lines part the entries; values can stand above or below the compound they belong to.

Key:
[1] = molecular target: T1, hO44 Receptor (Homo sapiens, UniProt P21917); details: for Intrinsic Activity / Ratio Low/High / Ki: hO44 Receptor; for Ratio Low/High: ratio of affinity at low-affinity agonist state to high affinity agonist state
T1 sequence (P21917 1-419): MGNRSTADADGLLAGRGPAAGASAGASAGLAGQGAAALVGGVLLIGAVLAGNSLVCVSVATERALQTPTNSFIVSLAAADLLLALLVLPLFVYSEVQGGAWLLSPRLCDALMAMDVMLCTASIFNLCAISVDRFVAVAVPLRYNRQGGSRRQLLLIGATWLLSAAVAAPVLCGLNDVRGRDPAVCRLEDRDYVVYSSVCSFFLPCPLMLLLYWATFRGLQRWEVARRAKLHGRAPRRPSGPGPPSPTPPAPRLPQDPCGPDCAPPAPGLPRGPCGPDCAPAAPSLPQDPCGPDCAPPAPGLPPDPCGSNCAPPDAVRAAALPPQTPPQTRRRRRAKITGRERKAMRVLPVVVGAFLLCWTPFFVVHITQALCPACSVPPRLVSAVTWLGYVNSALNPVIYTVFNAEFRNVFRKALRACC

[2] = tested on: hO3 Receptor (Homo sapiens); details: for Intrinsic Activity: calculated from the Low/High ratio; for Ratio Low/High: ratio of affinity at low-affinity agonist state to high affinity agonist state; for Ki: read-out: Ki (nM) ± S.D
[3] = molecular target: hD21 Receptor (Homo sapiens, UniProt P14416); assay: Affinity and intrinsic activity of partial dopamine agonists, Table 3
[4] = tested on: schizophrenia; assay: Clinical antipsychotic efficacy, efficacy tolerance and side effects of dopamine agonists in schizophrenia; type: in vivo, human
[5] = molecular target: D2 receptor (Homo sapiens, UniProt P14416); details: for Emax: CHO
[6] = molecular target: T2, hD47 (Homo sapiens, UniProt P21917)
T2 sequence (P21917 1-419): T1 sequence (P21917 1-419)

[7] = tested on: actively psychotic schizophrenic persons; assay: Clinical test of (−)-3PPP plus haloperidol in actively psychotic schizophrenic persons, BPRS; type: in vivo, human; details: for Change in Total BPRS Score, mean: each arm with haloperidol 1 mg bid
From the text: This combination was designed to produce a lower IA (-)-3PPP, and thereby prolonging its antipsychotic activity. […] This dose of haloperidol may have delivered a measurable antipsychotic effect. […] (Table 5).

[8] = molecular target: T3, hD44 (Homo sapiens, UniProt P21917); assay: biochemical
T3 sequence (P21917 1-419): T1 sequence (P21917 1-419)

[9] = tested on: schizophrenia; details: cited from earlier work
[10] = tested on: hD3 (Homo sapiens); assay: Affinity and intrinsic activity, Table 4; type: binding
[11] = molecular target: T4, hD42 (Homo sapiens, UniProt P21917, DEL265-296); assay: biochemical
T4 sequence (P21917 with tags, fused parts or gaps DEL265-296): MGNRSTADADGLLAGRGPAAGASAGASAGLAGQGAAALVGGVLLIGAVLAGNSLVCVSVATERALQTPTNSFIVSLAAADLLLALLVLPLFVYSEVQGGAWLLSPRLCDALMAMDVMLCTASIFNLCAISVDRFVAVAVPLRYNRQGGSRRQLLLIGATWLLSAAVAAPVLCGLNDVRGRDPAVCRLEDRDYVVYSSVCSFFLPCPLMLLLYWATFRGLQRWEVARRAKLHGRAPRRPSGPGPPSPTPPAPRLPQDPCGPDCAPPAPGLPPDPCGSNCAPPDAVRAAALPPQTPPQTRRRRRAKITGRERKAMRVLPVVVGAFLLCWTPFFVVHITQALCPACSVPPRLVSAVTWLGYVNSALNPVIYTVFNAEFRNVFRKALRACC

[12] = tested on: L-DOPA-induced dyskinesia in Parkinson's disease; details: cited from earlier work
[13] = tested on: schizophrenia; details: grade symbols, key not given; cited from earlier work
[14] = tested on: tardive dyskinesia; details: clinical pharmacology, in words; cited from earlier work
[15] = calculated from the Low/High ratio

hD21 Receptor, sequence (P14416 whole entry): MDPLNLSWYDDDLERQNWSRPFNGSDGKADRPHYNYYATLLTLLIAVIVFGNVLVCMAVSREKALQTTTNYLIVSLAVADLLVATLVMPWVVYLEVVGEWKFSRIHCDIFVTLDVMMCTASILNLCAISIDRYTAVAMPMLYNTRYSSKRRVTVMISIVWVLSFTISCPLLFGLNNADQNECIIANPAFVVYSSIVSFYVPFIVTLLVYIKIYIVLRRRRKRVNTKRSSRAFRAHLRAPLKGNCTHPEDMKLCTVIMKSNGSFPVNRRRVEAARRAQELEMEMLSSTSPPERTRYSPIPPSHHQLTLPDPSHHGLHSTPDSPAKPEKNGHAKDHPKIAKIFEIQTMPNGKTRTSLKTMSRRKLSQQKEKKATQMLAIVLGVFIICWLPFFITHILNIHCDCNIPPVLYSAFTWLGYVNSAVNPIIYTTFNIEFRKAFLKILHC
D2 receptor, sequence (P14416 whole entry): as above
hO3 Receptor (Homo sapiens), sequence (P14416 whole entry): as above
hD3 (Homo sapiens), sequence (P14416 whole entry): as above

Intrinsic Activity [1, 15]: 72%
Ratio Low/High [1]: 40
Ki ([1]; read-out: Ki (nM) ± S.D.): 7.7 ± 3.4 nM
Intrinsic Activity [2]: 48%
Ratio Low/High [2]: 10
Ki [2]: 4.8 ± 2.3 nM
Structure (SMILES): CCCN(CCc1cccs1)C1CCc2c(O)cccc2C1 (single isomer, unassigned; (+)) [(+)-N-0437]

Structure (SMILES): CN1C[C@H](CN2CC(=O)NC(=O)C2)C=C2c3cccc4[nH]cc(c34)C[C@H]21 [FCE-23884]
Intrinsic Activity [3]: 37.0%
Ki ([3]; read-out: Ki (HiAg State), high affinity agonist state): 0.4 nM
Ki ([3]; read-out: Ki (LowAg State), low affinity agonist state): 2.17 nM

Structure (SMILES): CCCN1CCc2cccc3c2[C@H]1Cc1ccc(O)c(O)c1-3 [(−)-NPA]
Intrinsic Activity [1, 15]: 57%
Ki ([1]; read-out: Ki (nM) ± S.D.): 0.6 ± 0.2 nM
Intrinsic Activity [2]: 100%

Structure (SMILES): CCCN1CCc2cccc3c2[C@H]1Cc1ccc(O)c(O)c1-3 [NPA, n-propylnorapomorphine]
Efficacy tolerance observed after ([4]; antipsychotic efficacy tolerance): 24 h

Structure (SMILES): CCCN1CCc2cccc3c2[C@@H]1Cc1ccc(O)c(O)c1-3 [(+)-NPA]
Intrinsic Activity [1, 15]: 58%
Ki ([1]; read-out: Ki (nM) ± S.D.): 2.3 ± 2 nM
Intrinsic Activity [2]: 61%

Intrinsic Activity [1, 15]: 88%
Ratio Low/High [1]: 106
Ki ([1]; read-out: Ki (nM) ± S.D.): 1.1 ± 0.7 nM
Intrinsic Activity [2]: 94%
Ratio Low/High [2]: 145
Ki [2]: 0.08 ± 0.04 nM
Structure (SMILES): CCCN(CCc1cccs1)[C@H]1CCc2c(O)cccc2C1 [(−)-N-0437]

Ki ([1]; Ki (nM) ± S.D.): 12 ± 6.5 nM
Intrinsic Activity [1, 15]: 96%
Intrinsic Activity [2]: 81%
Structure (SMILES): CCCN1CCCC(c2cccc(O)c2)C1 (single isomer, unassigned; (+)) [(+)-3-PPP]

Emax ([5]; read-out: Intrinsic activity (IA), Example 2): 40%
Emax ([5]; read-out: Intrinsic activity, tested without haloperidol, FIG. 1): 36%
Intrinsic Activity % [6]: 98%
Ki ([6]; high affinity agonist state, [3H]-agonist ligand): 14.3 nM
Ki ([1]; Ki (nM) ± S.D.): 12.2 ± 3.1 nM
Emax ([1]; read-out: Intrinsic Activity, hO44 Receptor, calculated from the Low/High ratio): 83%
Ki [8]: 13.2 nM
Emax ([8]; read-out: Intrinsic Activity %): 97%
Intrinsic Activity [2]: 46%
Emax [10]: 46%
Ki [11]: 30.9 nM
Emax ([11]; read-out: Intrinsic Activity %): 73%
Structure (SMILES): CCCN1CCCC(c2cccc(O)c2)C1 (single isomer, unassigned; (-)) [(−)-3-PPP, (−)3-(3-hydroxyphenyl)-N-n-propylpiperidine]
Change of intrinsic activity with increasing concentrations of haloperidol ([5]; varying concentrations of haloperidol, FIG. 1): linear reduction in the intrinsic activity
Duration of efficacy ([4]; antipsychotic efficacy before tolerance): up to 7 days
Antipsychotic effect over the trial ([7]; (−)-3PPP 300 mg bid plus haloperidol 1 mg bid, two weeks): extended longer for the entire two week period of the trial without evidence of tolerance
Change in Total BPRS Score, mean ([7]; Day 3): −1.4
Change in Total BPRS Score, mean ([7]; Day 7): −3.4
Change in Total BPRS Score, mean ([7]; Day 11): −3.3
Change in Total BPRS Score, mean ([7]; Day 14): −4.6
Acute motor side effects ([9]; clinical application in schizophrenia): not accompanied by any acute motor side effect
Duration of antipsychotic action ([9]; continuous dosing, agonist alone): approximately one week
Effect on L-DOPA-induced dyskinesia [12]: improves L-DOPA-induced dyskinesia in Parkinson's disease

Structure (SMILES): c1cnc(N2CCN(Cc3ccc4c(c3)OCO4)CC2)nc1 [Piribedil (S584), piribedil]
Antipsychotic [13]: 0
Effect on tardive dyskinesia [14]: modestly improved dyskinetic symptoms in TD

Intrinsic Activity [1, 15]: 80%
Structure (SMILES): CN1CCc2cccc3c2[C@H]1Cc1ccc(O)c(O)c1-3 [(−)-Apo]

Structure (SMILES): CN1CCc2cccc3c2[C@H]1Cc1ccc(O)c(O)c1-3 [Apomorphine, apomorphine]
Effect on tardive dyskinesia [14]: paradoxically improves tardive dyskinesia, both significantly and substantially

Intrinsic Activity [1, 15]: 55%
Structure (SMILES): CN1CCc2cccc3c2[C@@H]1Cc1ccc(O)c(O)c1-3 [(+)-Apo]

Structure (SMILES): O=C(CCCN1CCC(O)(c2ccc(Cl)cc2)CC1)c1ccc(F)cc1 [Haloperidol, haloperidol]
Change in Total BPRS Score, mean ([7]; Day 3): −1.0
Change in Total BPRS Score, mean ([7]; Day 7): −0.2
Change in Total BPRS Score, mean ([7]; Day 11): −0.1
Change in Total BPRS Score, mean ([7]; Day 14): −1.1

Structure (SMILES): CN1C[C@H](CSc2ccccn2)C=C2c3cccc4[nH]cc(c34)C[C@H]21 [CF25-397]
Antipsychotic [13]: 0
Effect on tardive dyskinesia [14]: modestly improved dyskinetic symptoms in TD
